From publication PMC3820767, “Turning Defense into Offense: Defensin Mimetics as Novel Antibiotics Targeting Lipid II” (PLoS Pathogens, 2013) come the findings set out here.

Read-outs that look alike come from different tables or passages of the source.

Usually IC50 stands for the concentration at which inhibition is half-maximal. Low values mean inhibition by little substance, high ones a need for much substance.

Data set [1] is described as follows: Surface Plasmon Resonance binding to immobilized 3-Lipid II. The note with it: SPR; for Binding on Lipid II?: Table S3, initial determination at 10 µM. As for the experimental part:
Surface Plasmon Resonance binding experiments were carried out on a BIAcore T100 system (BIAcore Inc., Piscataway, NY) at 25°C. The assay buffer was 10 mM HEPES, 150 mM NaCl, 0.05% surfactant P20, pH 7.4 (±3 mM EDTA) supplemented with 10% DMSO. […] For initial determination of binding, defensin mimetics were introduced into the flow-cells (30 µl/min) in the running buffer at 10 µM. Resonance signals were corrected for nonspecific binding by subtracting the background of the control flow-cell. After each analysis, the sensor chip surfaces were regenerated with 50 mM NaOH for 30 s at a flow rate 100 µl/min, and equilibrated with the buffer prior to next injection. For binding kinetics studies, binding isotherms were analyzed with manufacturer-supplied software for BIAcore T100.

Data set [2] deals with Escherichia coli ATCC 25922. Description: Antibacterial killing, 96-well turbidimetric (modified vCC) assay. It is filed as cell-based. The note with it: Table S3; concentration at which 100% killing occurred, no bacterial regrowth; No = not active. The procedure:
(§1) The antibacterial activity of defensin mimetics against Staphylococcus aureus ATCC 29213 and Escherichia coli 25922 was carried out in a 96-well turbidimetric assay essentially as described previously with the following modifications: bacteria were exposed for 30 min to compounds in 10 mM phosphate buffer containing 5% DMSO prior to addition of 2× Muller-Hinton medium. Bacterial growth was monitored for 12 hours and data were analyzed as described. Determination of MICs was performed by Micromyx, LLC (Kalamazoo, Michigan) according to CLSI standards.

Data set [3] deals with Staphylococcus aureus ATCC 29213. Described as above. The class given is cell-based. The following applies: Table S3; concentration at which 100% killing occurred, no bacterial regrowth; No = not active. As for the experimental part: as §1
The next data set relates to Caco-2. Nature of the data set: Cytotoxicity by MTT assay. The class given is cell-based, human.

In the case of `Cc1ccc(CN2C(=O)c3ccccc3C2(O)Cc2ccccc2)cc1` (stereo not shown) [Compound 7832238, 3-benzyl-3-hydroxy-2-[(4-methylphenyl)methyl]-2,3-dihydro-1H-isoindol-1-one], the “Binding on Lipid II?” value in data set [1] is on record as “No”. For the same compound, the “active against E.coli (IC100%)” value in data set [2] is listed as “No”. The “active against S.aureus (IC100%)” value in data set [3] is listed as “No”. For the same compound, the “cytotoxic for Caco II (C50% survival)” value in the data set on Caco-2 is “No”.
Turning to `CC(C)(O)C#Cc1ccc(C#Cc2ccc(C#CC(C)(C)O)cc2)cc1` [Compound 7191067, 4,4'-(1,2-ethynediyldi-4,1-phenylene)bis(2-methyl-3-butyn-2-ol)], in data set [1], the “Binding on Lipid II?” value is on record as “No”. For the same compound, the “active against E.coli (IC100%)” value in data set [2] is “No”. Further, the “active against S.aureus (IC100%)” value in data set [3] is reported as “No”. Also, the “cytotoxic for Caco II (C50% survival)” value in the data set with Caco-2 is “No”.
Regarding `C(#Cc1ccccc1)CN(CC#Cc1ccccc1)CCCCCCN(CC#Cc1ccccc1)CC#Cc1ccccc1.Cl.Cl` [Compound 5230300, N,N,N',N'-tetrakis(3-phenyl-2-propyn-1-yl)-1,6-hexanediamine dihydrochloride], the “Binding on Lipid II?” value in data set [1] is given as “No”. Moreover, in data set [2], the “active against E.coli (IC100%)” value was “No”. Also, the “active against S.aureus (IC100%)” value in data set [3] was “No”. Besides, in the data set with Caco-2, the “cytotoxic for Caco II (C50% survival)” value is “No”.
Consider `CN1/C(=C/C=C2/SC(=S)N(c3ccccc3)C2=O)C(C)(C)c2ccccc21` [Compound 2101-0102, (5E)-3-phenyl-2-sulfanylidene-5-{2-[(2E)-1,3,3-trimethyl-2,3-dihydro-1H-indol-2-ylidene]ethylidene}-1,3-thiazolidin-4-one], for which, in data set [3], the “active against S.aureus (IC100%)” value is listed as “No”. The “cytotoxic for Caco II (C50% survival)” value with Caco-2 is given as “No”.
For the compound `CC[n+]1c(/C=C/C=C2C=C(/C=C/N(C(C)=O)c3ccccc3)CC(C)(C)C/2)sc2ccccc21.[I-]` [Compound 5119716, 2-[(1E)-3-[(1E)-5,5-dimethyl-3-[(E)-2-(N-phenylacetamido)ethenyl]cyclohex-2-en-1-ylidene]prop-1-en-1-yl]-3-ethyl-1,3-benzothiazol-3-ium iodide], the “Binding on Lipid II?” value in data set [1] is on record as “No”. Also, the “active against E.coli (IC100%)” value in data set [2] is on record as “No”. For the same compound, the “active against S.aureus (IC100%)” value in data set [3] amounted to 125 µM. Moreover, the IC50 in the data set on Caco-2 stood at 52.7 µM.
Regarding `Cc1cc2ccccc2n1C=CC1=[N+](C)c2ccccc2C1(C)C` [4431/1, 1,3,3-trimethyl-2-(2-(2-methyl-1H-indol-1-yl)vinyl)-3H-1λ5-indole], the “Binding on Lipid II?” value in data set [1] is “No”. In addition, the “active against E.coli (IC100%)” value in data set [2] was “No”. For the same compound, the “active against S.aureus (IC100%)” value in data set [3] was 250 µM. In the data set with Caco-2, the “cytotoxic for Caco II (C50% survival)” value is listed as “No”.
Regarding `OC(c1cccc2ccccc12)c1c2ccccc2cc2ccccc12` (stereo not shown) [179415/1, 9-anthryl(1-naphthyl)methanol], the “Binding on Lipid II?” value in data set [1] is on record as “Yes”. Moreover, the “active against E.coli (IC100%)” value in data set [2] is “No”. In data set [3], the “active against S.aureus (IC100%)” value is 3,9 µM. Besides, in the data set with Caco-2 (Table S3, No = not cytotoxic), the “cytotoxic for Caco II (C50% survival)” value is “No”.
Consider `OCC(CO)C1c2cccc3ccc4cccc1c4c23` [625586/1, 2-(4H-cyclopenta[def]phenanthren-4-yl)-1,3-propanediol], for which the “Binding on Lipid II?” value in data set [1] is reported as “No”. Besides, in data set [2], the “active against E.coli (IC100%)” value is reported as “No”. The “active against S.aureus (IC100%)” value in data set [3] is recorded as “No”. The compound also had a half-inhibitory concentration (IC50) with Caco-2 of 83.8 µM.
For `O=C(O)C(=O)O.c1ccc(CCCN2CCC(N3CCN(c4ccccc4)CC3)CC2)cc1` [Compound 6785396, 1-phenyl-4-[1-(3-phenylpropyl)-4-piperidinyl]piperazine oxalate], the “Binding on Lipid II?” value in data set [1] is reported as “No”. Moreover, the “active against E.coli (IC100%)” value in data set [2] is “No”. For the same compound, the “active against S.aureus (IC100%)” value in data set [3] is “No”. This compound showed an IC50 with Caco-2 of 168 µM.
Take `OCCSc1c(F)c(SCCO)c(SCCO)c(F)c1SCCO` [Compound 0438-0367, 2-({2,5-difluoro-3,4,6-tris[(2-hydroxyethyl)sulfanyl]phenyl}sulfanyl)ethan-1-ol]: the “Binding on Lipid II?” value in data set [1] is on record as “No”. In data set [2], the “active against E.coli (IC100%)” value was “No”. Moreover, in data set [3], the “active against S.aureus (IC100%)” value was “No”. In addition, the “cytotoxic for Caco II (C50% survival)” value in the data set with Caco-2 was “No”.
As to `CCC[N+](CC#CCO)(CC#Cc1ccccc1)CCC` [Compound 4636-0141, (4-hydroxybut-2-yn-1-yl)(3-phenylprop-2-yn-1-yl)dipropylazanium], the “Binding on Lipid II?” value in data set [1] is “No”. Besides, in data set [2], the “active against E.coli (IC100%)” value is on record as “No”. The “active against S.aureus (IC100%)” value in data set [3] is listed as “No”. Moreover, the “cytotoxic for Caco II (C50% survival)” value with Caco-2 is reported as “No”.
For the compound `Clc1ccc(N2CCN(Cc3ccc(-c4ccccc4)cc3)CC2)cc1` [Compound 5270046, 1-(4-biphenylylmethyl)-4-(4-chlorophenyl)piperazine], the “Binding on Lipid II?” value in data set [1] was “No”. Also, the “active against E.coli (IC100%)” value in data set [2] is “No”. For the same compound, the “active against S.aureus (IC100%)” value in data set [3] is listed as “No”. In addition, the “cytotoxic for Caco II (C50% survival)” value in the data set with Caco-2 is “No”.
As for `CC(C)CCCC(C)C1CCC2C3CC=C4CC(O)CCC4(C)C3CCC12C` (stereo not shown) [Compound N050-0022, 2,15-dimethyl-14-(6-methylheptan-2-yl)tetracyclo[8.7.0.0^{2,7}.0^{11,15}]heptadec-7-en-5-ol], the “Binding on Lipid II?” value in data set [1] is “No”. The “active against E.coli (IC100%)” value in data set [2] is on record as “No”. In addition, in data set [3], the “active against S.aureus (IC100%)” value is “No”. Besides, the IC50 with Caco-2 worked out at 123 µM.
Consider `O=C(CSc1nc(-c2ccccc2)c(-c2ccccc2)n1-c1ccccc1)N1CCCc2ccccc21` [ST4098270, 1-(1,2,3,4-tetrahydroquinolin-1-yl)-2-[(1,4,5-triphenyl-1H-imidazol-2-yl)sulfanyl]ethan-1-one], for which the “Binding on Lipid II?” value in data set [1] was “No”. Also, in data set [2], the “active against E.coli (IC100%)” value is given as “No”. In data set [3], the “active against S.aureus (IC100%)” value is “No”. Further, the “cytotoxic for Caco II (C50% survival)” value in the data set with Caco-2 is on record as “No”.
Turning to `Fc1ccc(N2CCN(C3CCN(Cc4ccccc4)CC3)CC2)cc1` [Compound 5457685, 1-(1-benzyl-4-piperidinyl)-4-(4-fluorophenyl)piperazine], the “Binding on Lipid II?” value in data set [1] is “No”. The “active against E.coli (IC100%)” value in data set [2] is “No”. For the same compound, the “active against S.aureus (IC100%)” value in data set [3] is listed as “No”. The “cytotoxic for Caco II (C50% survival)” value in the data set with Caco-2 was “No”.
As for `CCN1C(=CC(C)=Cc2sc3ccc4ccccc4c3[n+]2CC)Sc2ccc3ccccc3c21` [290437/2, 1-ethyl-2-(3-(1-ethylnaphtho[1,2-d][1,3]thiazol-2(1H)-ylidene)-2-methyl-1-propenyl)-1λ5-naphtho[1,2-d][1,3]thiazole], the “Binding on Lipid II?” value in data set [1] was “No”. Also, the IC50 with Caco-2 came to 2.2 µM.
In the case of `c1ccc(-c2nc(N(c3ccccc3)c3ccccc3)s[n+]2-c2ccccc2)cc1` [Compound 1492-0330, 5-(diphenylamino)-2,3-diphenyl-1,2$l^5,4-thiadiazol-2-ylium], in data set [1], the “Binding on Lipid II?” value is recorded as “Yes”.
For the compound “HNP-1 R24A: single alanine mutant of HNP-1, Arg24 replaced by alanine”, in data set [1] (10 µM peptide, 40 RUs 3-Lipid II), the “binding to Lipid II compared to wild-type HNP-1” value is given as “maintained significant binding”.
As to `CCN1C(=O)C(c2ccc(O)cc2)(c2ccc(O)cc2)c2ccccc21` [Compound 4896-3423, 1-ethyl-3,3-bis(4-hydroxyphenyl)-2,3-dihydro-1H-indol-2-one], in data set [3], the “active against S.aureus (IC100%)” value is “No”. Moreover, 72.1 µM corresponded to half-maximal inhibition in the data set on Caco-2 (IC50).
